Like-named read-outs stand apart in the source and are kept apart here.

Data set [1] can be described thus: Back of the eye drug exposure (PK) after topical instillation of compound MPP. The data set is classed as in vivo. The following applies: rabbit, topical or ocular, 50 μL of 0.5% MPP formulation, MPP 0.5%, 50 μL topical BID 5 days, Dutch-belted rabbits, 8 mm punch. The text has this: Dutch-belted rabbits were used in these studies.
The portion of the retina and choroid collected and analyzed was an 8 mm round punch where the macula is located in humans.

Data set [2] is described as follows: Mobility of MPP nanoparticles in human cervicovaginal mucus (dark field microscopy). Conditions: low pH of human cervicovaginal mucus. As for the experimental part:
In order to determine whether the generated nanoparticles have reduced interactions with mucins and are therefore able to move within mucus without becoming trapped, particles were incubated with human cervicovaginal mucus (CVM) and observed via dark field microscopy. In a typical experiment, […] of the nanoparticle suspension was added to 20 μl of CVM. Observations were made in a minimum of three distinct and randomly selected areas of the CVM sample. Control particles with known behavior were used to qualify the CVM sample as appropriate for the assay. For all compounds (except compound 55) listed in Table 4, mobility in mucus was observed and therefore the nanoparticles were deemed to be effective MPP.

Where [3] appears, read: choroid, read-out: AUC0-last Choroid.
[4] abbreviates: choroid, read-out: Cmax Choroid.
[5] abbreviates: retina, read-out: AUC0-last Retina.

Turning to `COc1cc2c(Oc3ccc(NC(=O)Nc4cc(C)ccc4F)c(Cl)c3)ccnc2cc1OCCCN1CCC2(CC1)COC2` [Compound 25], the values for the AUC(0-t) in data set [1] (setting [3]) and in data set [1] (setting [5]) were 5.79 µM·h and 0.297 µM·h, respectively. The Cmax stood at 574 nM in data set [1] (setting [4]) and 33 nM in data set [1] (retina, read-out: Cmax Retina).

Regarding `COc1cc2c(Oc3ccc(NC(=O)Nc4cc(C)ccc4F)c(Cl)c3)ncnc2cc1OCCCN1CCC2(CC1)COC2` [Compound 12], the AUC(0-t) in data set [1] (setting [3]) stood at 2.45 µM·h; in data set [1] (setting [5]) it was 0.308 µM·h. The maximum concentration (Cmax) in data set [1] (setting [4]) is 265 nM; in data set [1] (retina, read-out: Cmax Retina), 39 nM.

Take `COc1cc2c(Oc3ccc(NC(=O)Nc4cc(C)on4)c(Cl)c3)ncnc2cc1OCCCN1CCC2(CC1)COC2` [Compound 9]: the AUC(0-t) in data set [1] (setting [3]) worked out at 5.4 µM·h; in data set [1] (setting [5]), 0.915 µM·h. The Cmax is 693 nM in data set [1] (setting [4]) and 110 nM in data set [1] (retina, read-out: Cmax Retina).

On to `COc1cc2ncnc(Oc3ccc(NC(=O)Nc4ccc(CN5CCN(C)CC5)cc4)c(Cl)c3)c2cc1OC` [Compound 55], for which the “solubility in CVM” value in data set [2] is listed as “soluble in the low pH of CVM”.

One may read the Cmax as the highest concentration seen after dosing.
